Laboratory results published in US9795570B2, “Modulation of macrophage phenotype by emodin” (University of South Carolina, priority 2016, dated 2017).

Legend:
[1] = system: mouse peritoneal macrophages; assay: Macrophage migration assay toward MCP1 (transwell); assay type: cell-based; conditions: LPS/IFNγ or IL4 stimulated, emodin 50 μM, MCP1 20 ng/ml
Protocol: Macrophages were stimulated with IL4 or LPS+IFNγ for 24 h with or without emodin. The media was then removed and the cells were washed with PBS. The cells were then resuspended in DMEM with scraping and 2×10^5 macrophages were seeded in triplicate into the top chamber of transwell inserts with 8 μm pores (Corning) and place in 24 well plates. Serum free DMEM with 20 ng/ml MCP1 was placed in the bottom of the wells. After 4 h, inserts were fixed in 4% paraformaldehyde for 20 min; the cells in upper inserts were swabbed using cotton buds, and the cells left on the membrane were stained with DAPI (1 μg/ml) for 1 min. The inserts were then cut out, mounted onto slides and imaged under a Nikon Eclipse NI-U fluorescence microscope (Nikon Inc. Melville, N.Y.) at 20× magnification (5 fields/insert). DAPI stained cells were quantified using Nikon NIS-Elements software.

[2] = system: H3K27m3 and H3K27ac; assay: Histone modifications H3K27m3/H3K27ac (western blotting, ChIP assay); assay type: cell-based, mouse
Protocol: Following stimulation with IL4 or LPS+IFNγ with or without emodin for varying periods, macrophages were lysed with cell signaling lysis buffer (Millipore) for whole cell lysates. Cytoplasmic and nuclear extracts were prepared using the Epiquik Nuclear Extraction kit (Epigentek, Farmingdale, N.Y.). Total protein was separated on 4-20% Tris-glycine pre-cast gels (Pierce) and transferred onto Nitrocellulose membranes (Bio-Rad Life Science, Hercules, Calif.). The membranes were then probed with HRP conjugated secondary antibodies, and signals were detected using Pierce ECL Western Blotting Substrate (Pierce).
Macrophages were stimulated with IL4 or LPS+IFNγ for 24 h with or without emodin. They were then fixed in 1% formaldehyde. Excess formaldehyde was quenched with glycine and the cells were collected in PBS by scraping. The cells were lysed (0.5% IGEPAL, 4 mM HEPES) and the nuclei were resuspended in nuclear lysis buffer (1% SDS, 10 mM EDTA, and 50 mM Tris, pH 8.1). The DNA was sheared by sonication using a Diagnode Bioruptor Pico for 15 cycles of 30 s on/30 s off. Then 10 μg chromatin was diluted 1:10 (0.01% SDS, 1.1% Triton X-100, 1.2 mM EDTA, 16.7 mM Tris-HCl, pH 8.1, 167 mM NaCl) and 2% of the input was removed from each sample and saved for analysis. Anti-H3K27m3 or anti-H3K27ac (Abcam) was added to each sample along with 20 μl of protein A+G magnetic beads (Millipore) and the samples were incubated overnight at 4° C. The beads were washed with low salt, high salt, LiCl, and TE wash buffers sequentially and the DNA was eluted off the beads with Proteinase K at 62° C. for 2 h (elution buffer: 200 mM NaCl, 1% SDS and 50 mM Tris). The DNA was then analyzed by real time PCR.

[3] = system: 4T1 cells; assay: Cell viability, LDH assay; assay type: cell-based, mouse; conditions: emodin 0-100 μM, 24-48 h
Protocol: Tumor cells (2×10^4 EO771 or 4T1 cells) were seeded into 96 well culture plates in DMEM with 10% FBS. The cells were incubated overnight at 37° C. The medium was then removed, and the cells were washed with phosphate-buffered saline (PBS). DMEM containing varying concentrations of emodin (0-100 μM) was then added to the cells in quadruplicate. Vehicle control contained an equal volume of DMSO. Plates of cells were then incubated for 24-48 h. After an indicated period, the viability of the cells was determined using a Lactate Dehydrogenase (LDH) Cytotoxicity Detection Kit (Clontech Mountain View, Calif.) according to the manufacturer's instructions. Briefly, the supernatant was removed from each well on the plate and placed in a new well on the same plate. An equal volume of cell lysis buffer (2% triton in DMEM) was then added to each well containing the cancer cells, and the cells were incubated at room temperature for 15 min. The reaction mixture was then added to each well (cell lysate plus supernatant) and incubated for 5 min before the stop solution was added. The absorbance was measured at 490 nm on a Spectra Max M5 Microplate Reader (Molecular Devices, Sunnyvale, Calif.). The percent viability was then calculated as the ratio of LDH in the cell lysate to the total amount of LDH in the lysate plus the supernatant. The viability of each group was compared to the control.

[4] = system: EO771 tumors; assay: EO771 breast tumor model in C57BL/6 mice; assay type: in vivo
Protocol: C57BL/6 and BALB/c mice (8-12 weeks, female) were purchased from Jackson Labs (Bar Harbor, Me.). They were housed at the University of South Carolina Animal Research Facility, and all procedures were approved by the Institutional Animal Care and Use Committee. EO771 or 4T1 cells (2×10^5) in 20 μL of PBS were injected into the 4th pair of mammary glands on C57BL/6 mice or BALB/C, respectively, on Day 0. Starting on Day 1, emodin (40 mg/kg) or vehicle (2% DMSO) was injected intraperitoneally in 1 ml PBS once daily. The tumor size was measured using a caliper every 2-4 days, and the tumor volume was calculated using a formula: V (mm^3)=L (major axis)×W^2 (minor axis)/2. Mice were sacrificed at various time points.
At sacrifice, tumors were embedded in OCT. They were then cut into 8 μm thick frozen sections and placed on slides. For immunohistochemistry staining, the sections were fixed with 4% paraformaldehyde for 10 min, and then blocked with 0.01 M glycine containing 0.1% Triton x-100. Next, the sections were blocked with 5% BSA. They were then incubated in primary antibody overnight at 4° C.: anti-F4/80 (1:50, Biolegend), anti-pSTAT6 (1:50, Cell Signaling), or anti-C/EBPβ (1:50, Santa Cruz). The sections were washed with PBS and then incubated with secondary antibodies for 1 h at room temperature. The sections were then stained with DAPI (1 μg/mL) and coverslipped with DABCO. Slides were imaged using a Zeiss LSM 510 Confocal microscope (Zeiss, Peabody, Mass.). For quantitative analysis, the number of positive cells was manually counted in six random fields of view per section. CD31 staining was performed according to standard methodology. Slides were imaged on a Nikon ECLIPSE E600 microscope (Nikon, Melville, N.Y.) at 200× magnification (10 fields per section). The integrated optical density (IOD) of CD31 was quantified using Image-Pro Plus software.
Macrophages or T cells were isolated from 4T1 tumors from mice sacrificed at 6 weeks post implantation or from EO771 tumors 5 weeks post implantation, using EasySep™ Mouse PE Positive Selection Kit (Stem Cell Technologies, Vancouver, BC). For cell isolation, 1×10^7-1×10^8 cells were incubated with 20 μL PE conjugated anti-F4/80 (Biolegend) for macrophages or 20 μL PE conjugated anti-CD3 for T cells and 50 μL microbeads. The T cells and macrophages were lysed in Qiazol and used for RT-PCR analysis. For ChIP assays, 5-10×10^6 macrophages were fixed in 1% formaldehyde.

[5] = 40 mg/kg IP once daily from Day 1

Cc1cc(O)c2c(c1)C(=O)c1cc(O)cc(O)c1C2=O [emodin]
macrophage migration toward MCP1 [1]: significantly reduced | IL4-induced decrease of H3K27m3 in the promoter of IRF4, Arg1 and YM1 genes ([2]; ChIP assay): reversed | LPS/IFNγ-induced decrease of H3K27m3 in the promoter of iNOS, TNFα and IL6 genes ([2]; ChIP assay): attenuated | induced increase of H3K27ac in promoters (LPS/IFNγ: iNOS, TNFα, IL6; IL4: IRF4, YM1) ([2]; ChIP assay): suppressed | global expression of H3K27m3 or H3K27ac ([2]; western blotting, LPS/IFNγ or IL4, emodin 50 μM 24 h): no effect | concentration from which a slight effect on cell viability starts [3]: ≥ 25 µM | primary tumor growth [4, 5]: significant inhibition | tumor weight at the endpoint [4, 5]: significant inhibition | M1 marker (iNOS) expression in TAMs ([4]; F4/80+ cells from tumors, qPCR): significantly higher | M2 marker (Arg1 and CD206) expression in TAMs ([4]; F4/80+ cells from tumors, qPCR): significantly lower | reduction of the number of tumor infiltrating macrophages (F4/80) ([4]; experimental endpoint, 40 mg/kg IP): 70% | CD31 staining in tumors, relative to control ([4]; microvessel density, 5 weeks post injection): ~50% | expression of inflammatory cytokines IL1β and TNFα in TAMs ([4]; qPCR, without statistical significance): higher expression levels
